Assay results from patent publication US20080214506A1, “Novel use of ion channel active compound, meperidine, to mediate process of accelerated wound healing” (priority 2002, published 2008).

Test system: surgical wound
Test: meperidine subcutaneous infiltration as local anesthetic in exodontia and oral surgery, clinical observation over five years
Settings: for blood loss per case: used as the local anesthetic
Source text: Normal healing after surgical and third molar procedures can result in painful sequelae up to 14 days after surgery, which frequently require after-hour intervention by the surgeon. Among these sequelae are localized osteotitis (dry socket), trismus, facial edema, and protracted bleeding. For the purposes of this invention, the definition of “healed extraction site” will be a surgical wound that presents as normal clinical dental ridge architecture with pink gingival tissue and without classic granulation tissue, erythema, or edema.
For subcutaneous injection buccal or labial to extraction sites, meperidine is delivered in a standard insulin syringe pre-loaded with 40 mg meperidine in preservative-free solution (available as 1 cc (100 mg) ampules or 1 cc (100 mg) multidose vials). […] Consequently, early on, the use of meperidine for oral surgery was standardized as preservative-free and limited to low doses of 5-20 mg per extraction site with a maximum of 120 mg for any one individual. […] The surgical procedure also involves the concurrent use of intravenous barbituates (hexibarbitol), 0.2 mg atropine, 2 mg dexarnethasone, and concurrent use of 100% oxygen. Nitrous oxide, 20-40%, may be used intermittently during the case to assist the phobic dental patient through the procedure. Additionally each patient is encouraged to take orally 2000 units of vitamin C (adult dose) the day before surgery and 2000 units per day for 5 days postoperatively. […] (A thiophene local anesthetic has been used on rare occasions.)
The infiltration process usually includes 5-15 mg in the dental sulcus with 2-3 mg infused in the attached gingiva. No periodontal ligament or intraosseous injection of meperidine is used.

[1] = healed extraction site, injection during surgery, five year period

CCOC(=O)C1(c2ccccc2)CCN(C)CC1 [meperidine]
cases presenting with pink surgical site tissue including the mucoperiostial flap (3-4 days post surgery): 60-80%
post-operative bleeding or wound management problems (10 months, April 2001 through February 2002, prophylactic antibiotics not always used): No post-operative bleeding or wound management problems developed
patients healed before day 5 postoperatively (before the dry socket can occur): 80%
time after injection at which rapid clotting is seen (during surgery): three
time for extraction socket to form a complete clot with no further bleeding (during surgery): 2 to 5 min
blood loss per case, rarely went over (four impacted third molars): ≤ 20 cc
blood loss per case (four impacted third molars): 2-10 cc
patients in whom healing occurred in 3-4 days [1]: 80%
patients in whom healing occurred in 5-10 days [1]: 5%
patients in whom healing occurred in 1 day [1]: 15%
intraoperatively cardiac monitored arrythmias (human, in vivo): disappeared
laryngiospasms requiring muscle paralyzing agents (human, in vivo): not experienced
paresthesia (human, in vivo): can occur
clinical numbness (immediate postoperative, infiltration): without any marked clinical numbness
post-operative infections (in 5 years): no post-operative infections
trismus or temeromandibular joint dysfunction requiring physical therapy (in 5 years): no cases
relief of oral surgical pain from extractions (infiltrated subcutaneously buccal or labial to extraction site): clinically relieve oral surgical pain
dry sockets (over 5 years): disappeared from the practice
time after suturing until clotting satisfactory for discharge (patient with a factor deficiency disease): 15 min
tissue reaction observed clinically (solution containing a preservative, subcutaneous injection at extraction sites): excessive facial edema and tissue necrosis
nausea (total body dose under 120 mg): rare

Nc1ccccc1 [aminobenzene]
blood loss per case (four impacted third molars): 70-150 cc
